Data published in patent US20090136551A1, “Substituted Dicyanoalkanes For Combating Animal Pests” (BASF AKTIENGESELLSCHAFT, priority 2005, published 2009).

Assays:
[1] = system: Yellowfever Mosquito (Aedes aegyptii); test: Activity via glass contact (treated glass vials); assay type: in vivo; details: read-out: mortality against yellowfever mosquito
Text: B.7. Activity Against Argentine Ant (Linepithema humile), Harvester Ant (Pogonomyrmex californicus), Acrobat Ant (Crematogaster spp.), Carpenter Ant (Camponotus floridanus), Fire Ant (Solenopsis invicta), House Fly (Musca domestica), Stable Fly (Stomoxys calcitrans), Flesh Fly (Sarcophaga sp.), Yellowfever Mosquito (Aedes aegyptii), House Mosquito (Culex quinquefasciatus), Malaria Mosquito (Anopheles albimanus), German Cockroach (Blattella Germanica), Cat Flea (Ctenocephalides felis), and Brown Dog Tick (Rhipicephalus sanguineus) Via Glass Contact
Glass vials were treated with 0.5 ml of a solution of active ingredient in acetone and allowed to dry. Insects or ticks were placed into each vial together with some food and moisture supply.

[2] = system: Bird Cherry-Oat Aphid (Rhopalosiphum padi); test: Activity against bird cherry-oat aphid (sprayed barley leaf disks); assay type: in vivo; details: foliar, 120 h
Experimental: B.6. Activity Against Bird Cherry-Oat Aphid Aphid (Rhopalosiphum padi)
The active compounds were formulated in 1:3 DMSO:water. Barley leaf disks were placed into microtiterplates filled with 0.8% agar-agar and 2.5 ppm OPUS™. The leaf disks were sprayed with 2.5 μl of the test solution and 5 to 8 adult aphids were placed into the microtiterplates which were then closed and kept at 19-22° C. and 35-45% under fluorescent light for 5 days. Mortality was assessed on the basis of vital, reproduced aphids. Tests were replicated 2 times.

N#CC(C#N)(CCC(F)(F)F)Cc1cccc2nsnc12 [I.1, 2-benzo[1,2,5]thiadiazol-4-ylmethyl-2-(3,3,3-trifluoropropyl)-malononitrile]
mortality at 10 ppm [1]: > 75%
mortality at 300 ppm [2]: > 90%
